Measurements as given in patent publication US20090246209A1, “GNRH ANALOGUES FOR TREATMENT OF URINARY INCONTINENCE” (priority 2000, published 2009).
Values joined by “and” are separate entries in the source; they are usually repeats but may differ in a detail not shown here. Identical values can stand only once. “Also recorded” adds a separate entry of the source.

Columns and labels:
[1] = tested on: client owned dogs suffering from urinary incontinence; assay: double-blind, placebo-control study of long-acting GnRH analogue in incontinent dogs; type: in vivo, dog
Protocol: In a second ongoing study, 16 client owned dogs suffering from urinary incontinence were enrolled in a double-blind, placebo-control study. In the initial phase of the study, dogs were randomly assigned to treatment with a long-acting GnRH analogue (leuprolide acetate) or placebo (dog owners and the investigators were blinded to treatment) along with a short course of therapy with phenylpropanolamine. 5 weeks after treatment with drug or placebo, dogs were evaluated and, if not fully continent, treated with a long-acting GnRH analogue (leuprolide acetate) in an open label phase of the study. To date only 1 of 10 dogs treated with placebo became continent vs. […] treated with drug during the blinded portion of the study. Overall, the results generated thus far indicate […] dogs treated with the long-acting GnRH analogue became continent and […] improved after discontinuation of the short acting phenylpropanolamine. Only 1 dog of 15 treated with the GnRH analogue was considered not to have improved following treatment with the drug.

[2] = tested on: menopausal person suffering from stress incontinence; assay: 24 hour pad test in a menopausal person with stress incontinence; type: in vivo, human; conditions: single dose of 3.75 mg; 2 weeks after treatment; before treatment 10 to 130 ml daily
Protocol: A second menopausal person, suffering from stress incontinence for at least 6 years, was treated with a single dose of 3.75 mg of leuprolide acetate. 24 hour pad tests conducted prior to treatment with the drug indicated they lost between 10 and 130 ml of urine on a daily basis due to their incontinence.

[3] = tested on: bitches suffering from urinary incontinence after spaying; assay: GnRH analogue slow release implant in bitches with urinary incontinence after spaying; type: in vivo, dog; conditions: for Side effects: dash = none
Protocol: Additionally, for a limited period the dogs were treated with phenylpropanolamine in a dosage of 1.5 mg/kg BW tid orally.
After discontinuation of the shortacting phenylpropanolamine 8 bitches remained continent. Their continence was therefore achieved solely by the treatment with the composition as described in the present invention. Seven out of fifteen dogs seemed to be much happier and in none of the dogs did the general condition deteriorate. […] The respective results are shown in more detail in table 1.

[4] = tested on: cocker spaniel bitches showing excessive growth of the undercoat due to spaying; assay: coat quality in spayed cocker spaniel bitches with excessive growth of the undercoat; type: in vivo, dog; conditions: 5 mg slow release s.c. implant
Protocol: Two cocker spaniel bitches belonging to the same owner were showing excessive growth of the undercoat due to spaying. […] Both dogs were first clinically examined and thereafter a GnRH analogue (Deslorelin) in a dosage of 5 mg, in slow release form, was subcutaneously implanted between the shoulder blades.

[5] = tested on: perimenopausal person with urge incontinence and hotflushes; assay: treatment of a perimenopausal person with urge incontinence and hotflushes; type: in vivo, human; conditions: 3.75 mg; one person
[6] = 11.25 mg slow release s.c. implant, with PPA

## CCNC(=O)[C@@H]1CCCN1C(=O)[C@H](CCCNC(=N)N)NC(=O)[C@H](CC(C)C)NC(=O)[C@@H](CC(C)C)NC(=O)[C@H](Cc1ccc(O)cc1)NC(=O)[C@H](CO)NC(=O)[C@H](Cc1c[nH]c2ccccc12)NC(=O)[C@H](Cc1c[nH]cn1)NC(=O)[C@@H]1CCC(=O)N1 [Leuprorelinacetate, Leuprolid acetate]
[1]; blinded portion, 5 weeks after treatment, with short course of phenylpropanolamine, placebo 1 of 10
  dogs that became continent: 3 to 8 dogs
[1]; overall, of 15 dogs treated
  dogs considered not to have improved: 1 dog
[1]; overall, of 15 dogs treated, after discontinuation of phenylpropanolamine
  dogs that became continent: 6 dogs
[1]; overall, of the remaining dogs, after discontinuation of phenylpropanolamine
  dogs that improved: 9 dogs
[2]
  daily urine loss (pad test): 1 mL
[3]; [6]
  Duration of effect after treatment: >64 days
  Effect on incontinence: 100%
[3]; 11.25 mg slow release s.c. implant, without PPA
  Duration of effect after treatment: 0 days
[3]; 11.25 mg slow release s.c. implant, without PPA, listed as Leuprorelin acetate
  Duration of effect after treatment: >14 days

## Deslorelin acetate [Deslorelinacetate]
[4]; 5 weeks after the injection, both dogs
  coat quality: obvious amelioration of the coat quality
[4]; 21 weeks after injection
  signs of baby coat: no signes of “baby coat” were apparent anymore
[3]; 6 mg slow release s.c. implant
  Side effects: agile, more; also recorded: More playfull
[3]; 6 mg slow release s.c. implant, with PPA (phenylpropanolamine)
  Effect on incontinence: 100%
[3]; 12 mg slow release s.c. implant
  Side effects: More self-; also recorded: More tolerant; also recorded: less aggres-
[3]; 12 mg slow release s.c. implant, with PPA
  Effect on incontinence: 80% and 100%

## Triptorelin acetate [Triptorelinacetate]
[5]
  period of improvement of both symptoms: about 4 weeks
  urge incontinence and hotflushes, reported change: improved considerably
[3]; 3.75 mg slow release s.c. implant, 36 kg bitch, dose too low
  Effect on incontinence: Not effec-
[3]; 3.75 mg slow release s.c. implant, dose too low
  Duration of effect after treatment: 0

## Buserelin acetate [Buserelinacetate]
[3]; 6.3 mg slow release s.c. implant
  Side effects: agile, more
[3]; 6.3 mg slow release s.c. implant, without PPA
  Duration of effect after treatment: 44 days and 83 days
